We go through 1 compound from patent publication US20080206219A1, “Novel Indications for Transforming Growth Factor-Beta Regulators” (THE REGENCTS OF THE UNIVERSITY OF CALIFORNIA, priority 2003, published 2008).

“Also recorded” adds a separate entry of the source.

In assay [1] the test system is Collα1(I)+/+ and Collα1(I)r/r mice. Kind of assay: Miles assay: Evans blue leakage in ears after mustard oil challenge. Type of assay: in vivo. Conditions: for Evans blue dye leakage into vascular stroma after MO, GM6001-treated versus vehicle-treated mice: GM6001 i.p. 100 mg/kg daily for 3-days before MO challenge. Here is the method:
Evans blue (EB) dye (30 mg/kg in 100 μl PBS; Sigma-Aldrich) was injected into the tail vein of 7- to 8-week-old mice. In some experiments, after 1-min, 30 μl of 5% mustard oil (Phenyl Isothiocyanate, 98%, Sigma-Aldrich) diluted in mineral oil (Sigma-Aldrich) was applied to the dorsal and ventral surfaces of the ear; the application process was repeated 15 minutes later. Isoflurane anesthesized mice were photographed 30 minutes after injection of EB dye. Anesthesized mice were then cardiac perfused, ears removed, blotted dry and weighed. EB dye was extracted from ears in 1 ml of formamide overnight to 48-hrs at 60° C. and measured spectrophotometrically at 610 nm in a SpectraMax 340™ (Molecular Devices). Data are expressed as mean±SEM. Comparisons of the amounts of dye extravasation were evaluated by Mann-Whitney statistical test with p values less than 0.05 considered significant. In some experiments, 5-min prior to the infusion of EB dye, shaved 5-to 7-week old mice were injected (10 μl) intradermally with one of the following agents at the concentrations shown (VEGF120, R&D Systems; VEGF164, Chemicon; histamine, Calbiochem; serotonin, Sigma-Aldrich) and the appearance of a blue spot monitored for 30 minutes at which time mice were euthanized, cardiac perfused, photographed and the area of skin surrounding the site of injection excised (˜5 mm^2), photographed and EB dye extracted as above. […]
The vascular physiology in a mouse model of human Sc, e.g., Collα1(I)^r/r mice, was studied to determine whether an altered balance between collagen synthesis, accumulation and/or degradation was a rate-limiting factor for efficient vascular physiology prior to histopathologic appearance of Sc disease. The ears of Collα1(I)^r/r versus littermate control (Collα1(I)^+/+) mice were treated with vehicle alone (mineral oil; FIG. 1A) or mustard oil (MO; 5% in mineral oil: right ear), an inflammatory agent that induces plasma leakage, vasodilation of capillaries and inflammation in the skin (FIG. 1A). Evans blue dye (30 mg/kg in 100 μl PBS; Sigma Chemical Co., St. Louis, Mo., USA) was injected into the tail vein of the mice. After 1 minute, 5% mustard oil (Phenyl Isothiocyanate, 98%, Sigma) diluted in mineral oil (Sigma) was applied to the dorsal and ventral surfaces of the ear with a cotton swab; the application process was repeated 15 minutes later. […] Isoflurane anesthesized mice were photographed 30 minutes after injection of Evans blue dye. Anesthesized mice were then cardiac perfused, ears removed, blotted dry, and weighed. The Evans blue dye was extracted from the ears with 1 ml of formamide overnight at 60° C. and measured spectrophotometrically at 610 nm in a SpectraMax 340™ (Molecular Devices). Data are expressed as mean±SEM. Comparisons of the amounts of dye extravasation were evaluated by the Fisher's t test with p values less than 0.05 considered significant.
Vascular permeability (VP) responses in control and Collα1(I)^r/r mice treated with a broad spectrum synthetic metalloproteinase inhibitor (MPI), e.g., GM6001 were examined. GM6001 (N-[(2R)-2(hydroxyamidocarbonylmethyl)-4-methylpantanoyl]-L-tryptophan ethylamide), a broad, class-specific metalloproteinase inhibitor (Chemicon, Temecula Calif.), was administered daily i.p. at 100 mg/kg body weight as a 20 mg/ml slurry in 4% carboxymethylcellulose in 0.9% PBS daily for 3-days. Controls were treated with a daily injection of 4% carboxymethylcellulose in PBS. The animals were then subject to cutaneous challenge with MO and qualitative and quantitative assessment of Evans blue dye leakage into vascular stroma (FIG. 5A).

The next assay concerns TGFβ1. Kind of assay: IP-Western of mature dimeric TGFβ1 in tissue lysates of treated mice. The class given is in vivo. Particulars: lysates from Collα1(I)+/+ and Collα1(I)r/r mice treated with GM6001.
In a further assay the test system is MP activity. Particulars: GM6001 i.p. 100 mg/kg, 20 mg/ml slurry in 4% CMC; cited from earlier work.
Where [2] appears, read: control versus Colα1(I)r/r mice +/- mustard oil, p<0.03.

Procedure for TGFβ1: After incubation with protein agarose G or A beads (Roche) beads for an additional hour at 4° C., lysates bound to agarose beads were washed three times with HNTG buffer and bound proteins were eluted by boiling in 1× reduced SDS_PAGE sample buffer for 5-min and centrifuged at 13,000 rpm for 10-min. Tissue lysates (20 μg for LAP) or eluted immunoprecipitated complexes were separated by electrophoresis on 10% SDS-polyacrylamine gels, and transferred to nitrocellulous membranes overnight at 4° C. […] Membranes were then washed and developed by using an enhanced chemiluminescence kit (ECL, Amersham Biosciences). Biotinylated-LAP antibodies (R&D System BAF246, 1:1000), biotinylated anti-TGF-β 1 antibodies (R&D System BAF240, 1:1000) and antibodies to MMP14 (Oncogene Sciences 1M397, 1:1,000; Chemicon AB8104, 1:1000 were used for detection on membranes. For loading control in LAP western analysis, rat monoclonal antibody (AbCam YL1/2, 1:5,000) against o-tubulin and goat anti-rat-HRP (Pierce, 1:2000) antibodies were used.

Take `CNC(=O)[C@H](Cc1c[nH]c2ccccc12)NC(=O)[C@@H](CC(=O)NO)CC(C)C` [GM6001]: in assay [1] (Collα1(I)r/r mice), the “Evans blue dye leakage into vascular stroma after MO, GM6001-treated versus vehicle-treated mice” value is reported as “significantly above vehicle-treated; also recorded: restored the appropriate acute vascular responses; also recorded: restores acute vascular responses”. Besides, the “Evans blue dye leakage into vascular stroma after MO, GM6001-treated versus vehicle-treated mice” value in assay [1] (control Collα1(I)+/+ mice) is recorded as “higher than that observed in MO-treated control mice receiving vehicle alone; also recorded: even more susceptible to MO-induced EB leakage; also recorded: hyper-sensitive to vascular leakage”. For the same compound, in assay [1] (setting [2]), the “effect of GM6001, fold increase (FIG. 5)” value was 1.8 fold and the “effect of GM6001, increase in % (FIG. 5)” value was 54%. Besides, the “level of ~25 kDa dimeric mature form of TGFβ1 in tissue lysates” value in the assay with TGFβ1 was “markedly decreased; also recorded: reduced”. Besides, in the assay with MP activity, the “in vivo MP activity” value is on record as “inhibit in vivo MP activity”.
